Here are results for 10 compounds from US8143268B2, “Bicyclic pyrimidinones and uses thereof” (Avexa Limited, priority 2006, dated 2012).

Where two headings read alike, the source gives them in different places.

Data set [1] addresses T1, integrase (Human immunodeficiency virus type 1 group M subtype B, UniProt P04585).
T1 construct: Each reaction (40 ul) contains 30 nM substrate DNA ad 400 ng integrase
Description: HIV integrase 3′ processing/strand transfer assay (IC50). The format is biochemical. The protocol:
A combined 3′-processing/strand transfer assay procedure similar to that published (Ovenden et al. Phytochemistry. 2004 December; 65(24):3255-9.) could be used. The assay could be adapted to a 96 well plate format. Briefly, 400 ng of […] is incubated with 30 nM substrate DNA, consisting of annealed U5 LTR sequence oligonucleotides tagged with Digoxigenin (DIG; 5′-[…]-DIG-3′ (SEQ ID NO: 1)) or biotin (5′-Bio-[…]-3′ (SEQ ID NO: 2)) so that each substrate has either a DIG or Bio tag on opposite strands. Reactions are carried out for 2 hrs at 37° C., products generated as a result of 3′ processing and strand transfer activity are bound to streptavidin plates and detected with using anti-DIG-alkaline phosphatase conjugate and p-nitro phenyl phosphate substrate.
The strand transfer specific assay is of similar format to that of the 3′ processing/strand transfer combined assay except that it uses a biotinylated substrate that represents a pre-processed LTR end (5′-Bio-[…]-3′ (SEQ ID NO: 3)).
Oligonucleotides 5′-biotin-[…]-3′ (SEQ ID NO: 3) and 5′-[…]-Dig-3′ (SEQ ID NO: 1) are annealed in 10 mM Tris-Cl pH8.0, 100 mM NaCl, 2 mM EDTA at a final concentration of 30 uM.
Each reaction (40 ul) contains 30 nM substrate DNA ad 400 ng integrase in a reaction buffer comprising 20 mM Tris-Cl pH7.5, 25 mM NaCl, 5 mM MnCl2, 5 mM MgCl2, 5 mM B-ME, 50 ug/mL BSA, 0.05% (v/v) Tween-20.
Compounds are added in DMSO at 1/10 final reaction volume.
Reactions are incubated at 37° C. for 2 hr followed by the addition of 60 ul adjustment buffer containing 33 mM Tris-Cl pH 7.5, 664 mM NaCl, 16.6 mM EDTA, 0.166 mg/mL sonicated salmon sperm DNA.
The samples are then transferred to Streptavidin coated plates and products of the enzyme reactions are allowed to bind for 1 hr at room temperature.
Plates are then washed with 3×5 min with 30 mM NaOH, 200 mM NaCl, 1 mM EDTA then 3×5 min with wash 2: 10 mM Tris-Cl pH8.0, 6 mM EDTA, 0.1 mg/mL nuclease free BSA.
Anti-digoxigenin-phosphatase Fab (Roche, 0.1 U/mL)), diluted 1/2000 in wash 2 buffer is then added to each well and plates incubated 1 hr at 37° C.
Plates are then washed 3 times with TBS— Tween-20 (0.1%) then twice with TBS and 100 ul substrate (1 mg/mL p-nitrophenylphosphate in 0.1M Tris, pH 9.8) is added and plates incubated until sufficient colour is developed.

The test system of data set [2] is HIV. The data set can be described thus: Inhibition of HIV replication (p24). The format is cell-based. The following applies: Human immunodeficiency virus 1; concentration inhibiting HIV p24 production to 50% of no drug controls. The protocol: (§1) Cells are seeded into 96 well microtitre plates at 50,000 cells per 50 μl per well in RF-containing […] polybrene (RF-10/2). Compounds are prepared to 4× final concentration in RF-10/2, and 30 L added to cells. Virus (40 L in RF-10/2 containing 1600 pfu) is added to each well or 40 L RF-10/2 for negative controls and for assaying compound cytotoxicity. After 24 hrs, an additional 90 μL of media or media containing 1× compound is added to each well. At 4 days post infection, 100 μL of media is removed from each well and replaced with 100 μl of fresh media with or without compound. Forty eight hours later supernatants are harvested and levels of extracellular p24 determined. Supernatants are diluted 1 in 10,000 and p24 levels assayed using the Vironostika p24 assay kit. EC50 is calculated as the concentration required to inhibit HIV p24 production to 50% that of no drug controls.

A short description of data set [3]: Compound cytotoxicity (CC50). It is filed as cell-based. The note with it: wells without virus. As to the method:
as §1

In data set [4] the target is T2, HIV integrase enzyme (Q148K) (Human immunodeficiency virus type 1 group M subtype B, UniProt P04585, Q1295K). The data set can be described thus: Strand transfer assay, mutant (Q148K) HIV integrase. The format is biochemical. The following applies: FIG. 1. The protocol: A strand transfer assay procedure similar to that published (Ovenden et al. Phytochemistry. 2004 December; 65(24):3255-9.) is used. Briefly, 400 ng of the enzyme, wild type or drug resistant mutant, is mixed with the compound to be tested and incubated with 30 nM substrate DNA. The substrate DNA is designed to mimic HIV DNA termini that has undergone 3′ end processing, and consists of the annealed U5 LTR sequence oligonucleotides tagged with Digoxigenin (DIG; 5′-[…]-DIG-3′ (SEQ ID NO: 1)) or biotin (5′-Bio-[…]-3′ (SEQ ID NO: 3)) so that each substrate has either a DIG or Bio tag on opposite strands. Reactions are carried out for 1 hr at 37° C. Products generated as a result of strand transfer activity are bound to streptavidin plates and detected using anti-DIG-alkaline phosphatase conjugate and p-nitro phenyl phosphate substrate.
FIG. 1 represents as an example, strand transfer assay results from selected compounds against wild-type integrase and the integrase containing the Q148K mutation.
HIV integrase was mutated within a shuttle vector (pGEM) containing the majority of the HIV-I gag and pol sequence using site directed mutagenesis to generate integrase sequences that have been published as conferring resistance to published integrase inhibitors. These include, but are not limited to, mutations such as Q148K. […]

The target of data set [5] is T2, HIV integrase enzyme (Q148K). The following applies: Q148K mutant enzyme; cited from earlier work.
Where [6] appears, read: integrase assay, which of Example 28.1/28.2 not stated, read-out: IC50.

What is called IC50 is the concentration that inhibits the measured activity by half. As to `Cc1ccc2nc(-c3nnc(-c4ccccc4)o3)c(O)c(=O)n2c1`, the IC50 in data set [1] (setting [6]) was more than 1000 nM.

Consider `Cc1ccc2nc(-c3nnc(Cc4ccc(F)cc4)s3)c(O)c(=O)n2c1`, for which, in data set [1] (setting [6]), the 50% inhibitory concentration (IC50) lay in the range of 1 to 1000 nM.

As for `Cc1ccc2nc(-c3ncc(-c4ccc(F)cc4)o3)c(O)c(=O)n2c1`, in data set [1] (setting [6]), the half-maximal inhibitory concentration (IC50) was more than 1000 nM.

Turning to `Cc1ccc2nc(-c3ncc(Cc4ccc(F)cc4)o3)c(O)c(=O)n2c1`, in data set [1] (setting [6]), the half-inhibitory concentration (IC50) was 1 to 1000 nM.

Regarding `Cc1ccc2nc(-c3noc(Cc4ccc(F)cc4)n3)c(O)c(=O)n2c1`, the half-maximal inhibitory concentration (IC50) in data set [1] (setting [6]) lay within 1 to 1000 nM.

By EC50 is commonly meant the concentration giving half of the maximal effect. The low end stands for a more potent agent, the high end for a less potent agent. The CC50 is the concentration that lowers cell viability or growth by half. Read a low CC50 as harm at low concentration. Turning to `O=C(NCc1ccc(F)cc1)c1nc2ccc(Br)cn2c(=O)c1O` [7-Br, CONHCH2 (4F-Ph), 7-Bromo-3-hydroxy-4-oxo-4H-pyrido[1,2-a]pyrimidine-2-carboxylic acid 4-fluoro-benzylamide], in data set [2], the concentration giving a half-maximal response (EC50) fell in the range of 1 to 1000 nM. The compound further displayed a 50% cytotoxic concentration (CC50) at 6 days in data set [3] of more than 1000 nM. Further, in data set [1], the IC50 fell in the range of 1000 to 10000 nM.

The compound `Cc1ccc2nc(C(=O)NCc3ccc(Cl)c(Cl)c3)c(O)c(=O)n2c1` [7-Me, CONHCH2 (3,4-ClPh), 3-Hydroxy-7-methyl-4-oxo-4H-pyrido[1,2-a]pyrimidine-2-carboxylic acid 3,4-dichloro-benzylamide] returned a half-maximal effective concentration (EC50) in data set [2] of 1 to 1000 nM. Besides, the CC50 at 6 days in data set [3] was more than 1000 nM. Moreover, in data set [1], the IC50 lay in the range of 1 to 1000 nM.

For the compound `Cc1ccc2nc(C(=O)NCc3ccc(F)cc3)c(O)c(=O)n2c1` [7-Me, CONHCH2 (4F-Ph), 3-Hydroxy-7-methyl-4-oxo-4H-pyrido[1,2-a]pyrimidine-2-carboxylic acid 4-fluoro-benzylamide], in data set [2], the EC50 is 1 to 1000 nM. In addition, the CC50 at 6 days in data set [3] was more than 1000 nM. The IC50 in data set [1] is 1000 to 10000 nM.

Turning to `O=C(NCc1ccc(Cl)c(Cl)c1)c1nc2ccc(N3CCOCC3)cn2c(=O)c1O` [Example 6.13, 3-Hydroxy-7-morpholin-4-yl-4-oxo-4H-pyrido[1,2-a]pyrimidine-2-carboxylic acid 3,4-dichloro-benzylamide], the “activity against HIV integrase enzyme (Q148K)” value in data set [4] is on record as “particularly high activity”.

Turning to `Cc1nnc(C(=O)NC(C)(C)c2nc(C(=O)NCc3ccc(F)cc3)c(O)c(=O)n2C)o1` [Raltegravir], the “resistance of Q148K HIV integrase to published integrase inhibitors” value in data set [5] was “resistant”.
